This is an account of results in PubChem BioAssay (NCI).

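Cells were grown in 96-well plates and exposed to each compound for 48 hours at five concentrations; endpoints were interpolated linearly between bracketing concentrations, or set to the highest concentration if not reached. Definition used: TGI = concentration required for complete inhibition of growth.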

Some test systems named below: A498 renal; HOP-92 NSCLC; MALME-3M melanoma; RXF 393 renal; TK-10 renal; SN12C renal; SNB-19 CNS; OVCAR-8 ovarian; HCT-15 colon.
Common to all, as to test: growth of human tumour cells (NCI), 48 h

Take `CN1CCC(O)C(CNC23CC4CC(CC(C4)C2)C3)C1` (stereo not drawn): the TGI in the test with A498 renal, in the test on HOP-92 NSCLC, in the test on MALME-3M melanoma, in the test with RXF 393 renal, in the test on TK-10 renal and in the test on SN12C renal was greater than 100 µM in each case. Further, the TGI in the test with SNB-19 CNS and in the test with OVCAR-8 ovarian was greater than 100 µM in each case.
`COc1ccc(CN(O)C2C(CO)OC(n3cc(I)c(=O)[nH]c3=O)C2O)cc1` (stereo not drawn): the TGI with A498 renal, in the test on HOP-92 NSCLC, in the test on MALME-3M melanoma, in the test on HCT-15 colon, in the test on RXF 393 renal and in the test on TK-10 renal was greater than 100 µM throughout. The TGI in the test on SN12C renal, in the test with SNB-19 CNS and with OVCAR-8 ovarian was greater than 100 µM throughout.
As for `CCN(CC)CCN(C)CC(C)(C)C(=O)/C=C/c1ccccc1`, the TGI in the test on A498 renal worked out at 17.3 µM; in the test on HOP-92 NSCLC, 18.1 µM; in the test with MALME-3M melanoma it was 28.5 µM; in the test on HCT-15 colon, 28.4 µM; in the test with TK-10 renal, 36.8 µM; in the test on SN12C renal, 22.7 µM. The TGI is 28.4 µM in the test on SNB-19 CNS and 43.2 µM in the test on OVCAR-8 ovarian.
`C=C1C(=O)OC2C1C(OC(=O)/C(=C/C)COC(C)=O)CC1(CO1)C1C(OC(=O)/C(=C/C)CO)C=C(C)C21` (stereo not drawn): the TGI worked out at 8.94 µM with A498 renal; 3.32 µM in the test with MALME-3M melanoma; 4.91 µM in the test with HCT-15 colon; 2.31 µM with RXF 393 renal; 6.05 µM in the test with TK-10 renal; 3.81 µM in the test on SN12C renal. The TGI in the test on SNB-19 CNS worked out at 13.9 µM; in the test with OVCAR-8 ovarian, 25.3 µM.
Consider `O=C(CC1Sc2ccccc2NC1=O)Nc1cccc(Cl)c1` (stereo not drawn), for which the TGI in the test with A498 renal is greater than 100 µM; in the test with HOP-92 NSCLC, 86.1 µM; in the test with MALME-3M melanoma it was greater than 100 µM; with HCT-15 colon, greater than 100 µM; with RXF 393 renal, 80.4 µM; in the test with TK-10 renal, greater than 100 µM. Further, the TGI is greater than 100 µM in the test with SN12C renal, greater than 100 µM with SNB-19 CNS and 75.8 µM in the test with OVCAR-8 ovarian.
On to `CC(C)NC(=O)OCc1nnn2c1C(OC(=O)NC(C)C)CC2` (stereo not drawn), for which the TGI with HOP-92 NSCLC, in the test on MALME-3M melanoma, with HCT-15 colon, with RXF 393 renal, in the test on TK-10 renal and in the test with SN12C renal was greater than 100 µM each time. Also, the TGI with SNB-19 CNS and in the test on OVCAR-8 ovarian was greater than 100 µM in each case.
Take `COCCNC(=O)C1C(=O)N(CCOC)C(=O)/C1=N/N` (stereo not drawn): the TGI in the test with HOP-92 NSCLC, with MALME-3M melanoma, in the test on HCT-15 colon, with TK-10 renal, in the test with SN12C renal and in the test on SNB-19 CNS was greater than 100 µM in each case.
Regarding `CCCCNC(=S)Nn1c(-c2ccccc2)nc2ccccc2c1=O`, the TGI with A498 renal, in the test on HOP-92 NSCLC, with MALME-3M melanoma, with HCT-15 colon, with RXF 393 renal and in the test with TK-10 renal was greater than 100 µM in each case. The TGI in the test with SN12C renal and in the test on OVCAR-8 ovarian was greater than 100 µM throughout.
On to `COc1ccc(C(=O)O/N=C2\CCCC\C2=C/c2ccccc2)cc1`, for which the TGI with A498 renal, in the test on HCT-15 colon, in the test on TK-10 renal, in the test on SN12C renal, with SNB-19 CNS and in the test with OVCAR-8 ovarian was greater than 100 µM each time.
On to `CC(=O)NNc1nc(C)c(C(/C=C/c2ccc(/C=C/C(=N\NC(=O)c3ccncc3)c3sc(NNC(C)=O)nc3C)cc2)=N/NC(=O)c2ccncc2)s1`, for which the TGI in the test on A498 renal, with HOP-92 NSCLC, in the test on MALME-3M melanoma, in the test with HCT-15 colon, with RXF 393 renal and with TK-10 renal was greater than 100 µM in each case. Further, the TGI in the test with SN12C renal, with SNB-19 CNS and in the test on OVCAR-8 ovarian was greater than 100 µM throughout.
With `CCS[C@H]1NC(=O)C1[C@H](C)O[Si](C)(C)C(C)(C)C` (stereo partly drawn), the TGI in the test with A498 renal, with HOP-92 NSCLC, in the test on MALME-3M melanoma, in the test with HCT-15 colon, in the test with RXF 393 renal and in the test with TK-10 renal was greater than 100 µM in each case. Further, the TGI in the test with SN12C renal, in the test on SNB-19 CNS and in the test on OVCAR-8 ovarian was greater than 100 µM in each case.
Take `COC(=O)C1Cc2c([nH]c3ccccc23)[C@H](CC(C)C)N1` (stereo partly drawn): the TGI with A498 renal, with HOP-92 NSCLC, in the test with MALME-3M melanoma, in the test on RXF 393 renal, with TK-10 renal and in the test with SN12C renal was greater than 100 µM each time. Also, the TGI with SNB-19 CNS and in the test with OVCAR-8 ovarian was greater than 100 µM in each case.
Regarding `CC(=O)OC1COC(N2C(=O)C(=O)c3c(C)cc(Cl)nc32)C(OC(C)=O)C1OC(C)=O` (stereo not drawn), the TGI in the test with A498 renal, with HOP-92 NSCLC, in the test on MALME-3M melanoma, in the test on HCT-15 colon, in the test on RXF 393 renal and in the test on TK-10 renal was greater than 100 µM each time. Moreover, the TGI in the test on SN12C renal, with SNB-19 CNS and in the test with OVCAR-8 ovarian was greater than 100 µM throughout.
As to `CCCCN(CCCC)C(=Nc1ccccc1)N(CCCC)CCCC`, the TGI in the test with A498 renal was 37.8 µM; in the test with HOP-92 NSCLC, 7.06 µM; with MALME-3M melanoma it was 22.5 µM; in the test with RXF 393 renal, 25.6 µM; in the test on TK-10 renal, 34.4 µM; in the test with SNB-19 CNS it was 32 µM. The molecule further had a TGI in the test with OVCAR-8 ovarian of 24.9 µM.
Turning to `COC(=O)C(=O)C(C#N)c1cccc2ccccc12` (stereo not drawn), the TGI in the test on A498 renal, with HOP-92 NSCLC, in the test on MALME-3M melanoma, in the test with HCT-15 colon, with SN12C renal and in the test on SNB-19 CNS was greater than 100 µM in each case. Further, the TGI in the test with OVCAR-8 ovarian is greater than 100 µM.
Take `O=C(CC(O)(c1ccccc1)c1ccc(Cl)cc1)NC(=O)c1ccccc1O` (stereo not drawn): the TGI in the test on A498 renal turned out to be 8.62 µM; with HOP-92 NSCLC, 6.59 µM; with MALME-3M melanoma, 70.6 µM; in the test with HCT-15 colon, 37.5 µM; in the test on RXF 393 renal, 49 µM; with TK-10 renal, 41.2 µM. For the same molecule, the TGI is 32 µM with SN12C renal, greater than 100 µM with SNB-19 CNS and 61.3 µM in the test with OVCAR-8 ovarian.
